Data reported in patent US20100317703A1, “METHOD FOR INHIBITING BRASSININ OXIDASE” (UNIVERSITY OF SASKATCHEWAN, priority 2009, published 2010).

How the values were obtained:
[1] = system: mycelial cultures of L. maculans; assay: Antifungal activity: total protein content of cell-free extracts of treated mycelial cultures; type: cell-based, Leptosphaeria maculans; conditions: 24 h, control culture = 1.0
Protocol: (§1) Liquid cultures of L. maculans (virulent isolate BJ-125, IBCN collection, AAFC) were handled as described in the literature.^13 Fungal spores were subcultured on V8 agar under continuous light at 23±1° C.; after 15 days, fungal spores were collected aseptically and stored at −20° C.^14 Liquid cultures were initiated by inoculating minimal media (100 mL)^15 with fungal spores at 10^7/mL in Erlenmeyer flasks, followed by incubation on a shaker under constant light at 23±1° C.
(§2) For analysis of BO induction, 72 h old liquid cultures (20 mL) were co-incubated with test compounds (final concentrations in culture 0.10, 0.20, and 0.50 mM), and after an additional incubation for 24 h, the mycelia were separated from the culture broth by filtration.
(§3) Frozen mycelia (0.3-1.4 g) from L. maculans were suspended in ice-cold extraction buffer (1 mL) and ground (mortar) for 5 min. The extraction buffer consisted of diethanolamine(DEA, 25 mM, pH 8.3), 5% (v/v) glycerol, D,L-dithiothreitol (DTT, 1 mM), and 1/200 (v/v) protease inhibitor cocktail (P-8215, Sigma-Aldrich Canada). The homogenate was centrifuged at 4° C. for 30 min at 50000 g. The resulting supernatant was used for determination of specific activity of BO. Protein concentrations were determined as described by Bradford^16 using the Coomassie Brilliant Blue method with BSA as a standard.
(§4) Mycelial cultures of L. maculans were incubated with the test compounds (0.10, 0.20, and 0.50 mM) for 24 h to evaluate potential induction of BO activity. The cultures were filtered, the mycelia were extracted with extraction buffer, and the resulting cell-free extracts were analyzed for BO activity using brassinin (1) as substrate. The total protein content of each cell-free extract was determined using a calibration curve built using BSA.

[2] = system: brassinin oxidase (BO); assay: Inhibitory effect of paldoxins on purified BO (brassinin as substrate, HPLC-DAD); type: biochemical, Leptosphaeria maculans; conditions: for Inhibiton (%) of BO: brassinin 0.10 mM, purified BO, ± SD of four independent experiments
Protocol: For purification of brassinin oxidase, 600 mL of 48 h old liquid cultures prepared as described above, were incubated with 3-phenylindole (19, 0.05 mM final concentration in cultures to induce BO) for an additional 24 h and then gravity filtered to separate mycelia from culture broth. The mycelia was stored at −20° C. up to 72 h and used to obtain protein extracts containing BO activity.
(§5) The reaction mixture contained DEA (20 mM, pH 8.3), DTT (1 mM), 0.1% (v/v) Triton X-100, brassinin (1, 1.0 mM), phenazine (0.50 mM), and protein extract (50-100 μL) in a total volume of 500 μL. The reaction was carried out at 24° C. for 20 min. A control reaction was stopped by the addition of EtOAc (2 mL) at t=0. The product was extracted with EtOAc (2 mL) and concentrated to dryness. The extract was dissolved in CH3CN (200 μL) and analyzed by HPLC-DAD. The amounts of brassinin (1) and indole-3-carboxaldehyde (3) in the reaction assay were determined using calibration curves built with […]. One enzyme unit (U) is defined as the amount of the enzyme that catalyzes the conversion of one micromole of substrate per minute (μmol·min^−1=U).
The purification of BO was performed in four steps as previously described.^17 The purified enzyme was used for screening test compounds for inhibitory activity. To determine potential inhibitors of BO, inhibition experiments were carried out using brassinin (1, 0.10 mM final concentration) and test compounds (0.10 and 0.30 mM final concentrations). Standard deviation values for assays were determined from four independent experiments.
The inhibitory effects of test compounds on BO activity were tested at 0.10 mM and 0.30 mM using brassinin (1) as substrate (0.10 mM) and purified BO.

[3] = system: brassinin oxidase (BO) activity in mycelial cultures of L. maculans; assay: Inducer effect of paldoxins: BO activity in cell-free extracts of treated mycelial cultures; type: cell-based, Leptosphaeria maculans; conditions: 24 h, control culture = 1.0
Protocol: as §1, §2, §3, §5, §4

[4] = system: brassinin oxidase (BO); conditions: 0.30 mM; reference compound, cited from ref. 17; cited from earlier work
[5] = 0.10 mM added to mycelial cultures
[6] = 0.20 mM added to mycelial cultures
[7] = 0.50 mM added to mycelial cultures

Row | Compound | Inhibiton (%) of BO ([2]; test compound 0.10 mM) [%] | Inhibiton (%) of BO ([2]; test compound 0.30 mM) [%] | Relative Protein [1, 5] | Relative Protein [1, 6] | Relative Protein [1, 7] | Relative Specific Activity of BO [3, 5] | Relative Specific Activity of BO [3, 6] | Relative Specific Activity of BO [3, 7] | other results
1 | CSC1=NCc2c([nH]c3ccccc23)S1 [Cyclobrassinin] | 23 ± 6 | 37 ± 8 | – | – | – | – | – | – | –
2 | c1ccc2cc(-c3cnsc3)ccc2c1 [I(g)] | – | – | 0.26 | 0.17 | 0.16 | 2.6 ± 0.2 | 8.5 ± 0.1 | 16.3 ± 3.3 | –
3 | COc1ccc2[nH]cc(-c3nccs3)c2c1 [I(c), 5-Methoxycamalexin] | 51 ± 4 | – | 0.28 | 0.24 | 0.13 | 1.7 ± 0.3 | 5.8 ± 0.6 | 1.6 ± 0.3 | Inhibiton (%) of BO ([2]; test compound 0.30 mM, listed as 5-Methoxycamalexin I(c)): 72 ± 1%; Inhibiton (%) of BO ([2]; test compound 0.30 mM, listed as 5-methoxycamalexin I(c)): ca. 72%
4 | c1ccc2[nH]c(-c3cscn3)nc2c1 [Thiabendazole, reference compound] | 16 ± 3 | 25 ± 7 | 0.35 | 0.28 | 0.06 | 1.9 ± 0.2 | 4.1 ± 0.2 | 4.9 ± 0.3 | BO inhibitory activity [4]: ca. 25%
5 | CSC(=S)NCc1c[nH]c2ccccc12 [brassinin, Brassinin] | – | – | – | – | – | – | – | – | Km ([2]; under the enzyme assay conditions): 150 µM
6 | CSC(=S)NCc1cc2ccccc2[nH]1 [Isobrassinin] | 11 ± 5 | 23 ± 6 | – | – | – | – | – | – | –

The next lines start with results.

Row | Inhibiton (%) of BO ([2]; test compound 0.10 mM) [%] | Inhibiton (%) of BO ([2]; test compound 0.30 mM) [%] | Compound | Relative Protein [1, 5] | Relative Protein [1, 6] | Relative Protein [1, 7] | Relative Specific Activity of BO [3, 5] | Relative Specific Activity of BO [3, 6] | Relative Specific Activity of BO [3, 7] | other results
7 | 29 ± 10 | 46 | Fc1ccc2c(-c3nccs3)c[nH]c2c1 [I(b), 6-Fluorocamalexin] | 0.36 | 0.28 | 0.24 | 3.9 ± 0.1 | 4.0 ± 0.2 | 1.8 ± 0.3 | –
8 | 30 ± 4 | 53 ± 4 | c1ccc2c(-c3nccs3)c[nH]c2c1 [Camalexin] | 0.28 | 0.24 | 0.10 | 4.5 ± 0.5 | 6.9±0.3 | 2.5 ± 0.1 | Inhibiton (%) of BO ([2]; test compound 0.30 mM, listed as Camalexin I(h)): 53 ± 7%; Inhibiton (%) of BO ([2]; test compound 0.30 mM, listed as camalexin): 53%
9 | 11 ± 4 | 17 ± 6 | Fc1ccc2c(-c3ccccc3)c[nH]c2c1 [I(e), 6-Fluoro-3-phenylindole] | – | – | – | – | – | – | –
10 | 41 ± 6 | – | COc1ccc2c(-c3nccs3)c[nH]c2c1 [I(d), 6-Methoxycamalexin] | 0.27 | 0.16 | 0.11 | 2.3 ± 0.1 | 3.7 ± 0.2 | 4.0 ± 0.1 | Inhibiton (%) of BO ([2]; test compound 0.30 mM, listed as 6-Methoxycamalexin I(d)): 63 ± 5%; Inhibiton (%) of BO ([2]; test compound 0.30 mM, listed as 6-methoxycamalexin I(b)): ca. 63%
11 | 47 ± 5 | – | Fc1ccc2[nH]cc(-c3nccs3)c2c1 [I(a), 5-Fluorocamalexin] | 0.30 | 0.23 | 0.19 | 5.0 ± 0.2 | 4.9 ± 0.4 | 7.9 ± 0.6 | Inhibiton (%) of BO ([2]; test compound 0.30 mM, listed as 5-Fluorocamalexin I(a)): 63 ± 2%; Inhibiton (%) of BO ([2]; test compound 0.30 mM, listed as 5-fluorocamalexin I(a)): ca. 63%
